# Source: patent US20240279710A1, “FLUORESCENT PROBES” (TOHOKU TECHNO ARCH CO., LTD., priority 2021, published 2024)
# How the values were obtained:
# SH-SY5Y cells = assay: Combined use with calpain inhibitor in live cell imaging; format: cell-based; conditions: inhibitor 10 μM, 5 μM Compound 19, SH-SY5Y cells; FIG. 30
# Description: Whether or not the improvement in enzymatic reactivity between the compound of the present invention and a calpain confirmed by the above-mentioned experiment remained the same even in a cell was verified. Calpain activity imaging in SH-SY5Y cells was performed on each of Compounds 16 and 19. Specifically, the SH-SY5Y cells (American Type Culture Collection, VA, USA) were cultured in a mixed medium of Dulbecco's modified eagle medium and Ham's F-12 medium (DMEM/F-12; Thermo Fisher Scientific, Inc.) (containing 10% fetal bovine serum (FBS; Thermo Fisher Scientific, Inc., MA, USA) and 100 U/mL penicillin-100 μg/mL streptomycin (PS; Thermo Fisher Scientific, Inc.)) under the conditions of 37° C. and 5% CO2-95% air. 6×10^4 to 8×10^4 Cells/well of the cells were seeded in a multiwell plate (μ-Plate 96 Well; ibidi, Grafelfing, Germany) coated with poly-D-lysine (Thermo Fisher Scientific, Inc.) and laminin (BD Biosciences, CA, USA), and were preincubated in a culture solution. Immediately after the removal of the culture solution in the wells, 200 μL of an assay solution (a culture solution containing a 5 μM probe) was added thereto, and the cells were incubated under the conditions of 37° C. and 5% CO2-95% air. 10 Minutes after that, a bright field image and a fluorescence image were taken with a confocal microscope (LSM 710, Carl Zeiss AG, Oberkochen, Germany). […]
# calpain = assay: Combined use with calpain inhibitor in rat NMDA model (Compound 19 as probe); format: in vivo
# Description: (§1) Carboxymethylcellulose sodium was dissolved in distilled water to prepare a 0.5% (w/v) CMC solution. An inhibitor-containing CMC solution was prepared by suspending SNJ-1945 in the 0.5% (w/v) CMC solution so that its concentration became 2.5% (w/v). Rats were each subjected to general anesthesia with isoflurane, and NMDA (10 mM, 2 μL) was administered into an eye of the rat. 2 Hours after the administration of NMDA, the inhibitor-containing CMC solution was intraperitoneally administered to the rat so that the dose of SNJ-1945 became 100 mg/kg body weight. 4 Hours after the administration of the inhibitor (6 hours after the administration of NMDA), the rat was anesthetized with isoflurane again, and Compound 19 (15 μM, 4 μL) was administered into the eye. Images of an ocular fundus were taken with F-10 20 minutes to 30 minutes after the administration of Compound 19. In a control group (N=8), the same operations as those in an SNJ-1945-administered group (N=8) except the following were performed: the 0.5% (w/v) CMC solution was administered instead of the inhibitor-containing CMC solution.
# as §1, with “orally” for “intraperitoneally”, “(N=7),” for “(N=8),”
# Carboxymethylcellulose sodium was dissolved in distilled water to prepare a 0.5% (w/v) CMC solution. An inhibitor-containing CMC solution was prepared by suspending SNJ-1945 in the 0.5% (w/v) CMC solution so that its concentration became 2.5% (w/v). The inhibitor-containing CMC solution was intraperitoneally administered to each of rats so that the dose of SNJ-1945 became 100 mg/kg body weight. 2 Hours after the intraperitoneal administration, the rat was subjected to general anesthesia with isoflurane, and NMDA (10 mM, 2 μL) was administered into an eye thereof. […]
compound,measurement,setting,value
COCCOCCOC(=O)N[C@@H](CC(C)C)C(=O)N[C@@H](Cc1ccccc1)C(=O)C(=O)NC1CC1 [SNJ-1945],intracellular fluorescence intensity (Compound 19 probe) with vs without inhibitor,SH-SY5Y cells,attenuates
same,number of HMRG-positive nerve cells compared to control group,"calpain; 100 mg/kg intraperitoneally 2 hours after NMDA, Compound 19 (15 μM, 4 μL) 4 hours later, FIG. 32",significantly reduced
same,number of HMRG-positive nerve cells compared to control group,"calpain; 100 mg/kg intraperitoneally 2 hours before NMDA, Compound 19 (15 μM, 4 μL) 6 hours after NMDA, FIG. 34",significantly reduced
same,number of HMRG-positive nerve cells compared to control group,"calpain; 100 mg/kg orally 2 hours after NMDA, Compound 19 (15 μM, 4 μL) 4 hours later, FIG. 33",significantly reduced
same,"number of HMRG-positive nerve cells compared to group administered any other calpain inhibitor (C2I, MDL 28,170, PD-151746)","calpain; orally as in Example 16, FIG. 35",significantly reduced
